Laboratory results taken from ChEMBL document CHEMBL1201862, “PubChem BioAssay data set” (2004).
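Interpolation was linear, between the two tested concentrations surrounding the appropriate level; five concentrations were tested over 48 hours in 96-well plates. Abbreviation: GI50, concentration required for 50% inhibition of growth.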 The source made the active and inactive calls. Cut-off read from the data, not from the text of the source: active = GI50 up to about 1.1 µM and inactive = higher.

Tests used:
Experiment in all cases: NCI-60 cell line screen, 48 h
SN12C = test system: SN12C
MCF7 = test system: MCF7
Malme-3M = test system: Malme-3M
PC-3 = test system: PC-3
HCT-15 = test system: HCT-15
KM12 = test system: KM12
MDA-N = test system: MDA-N
HL-60 = test system: HL-60
OVCAR-8 = test system: OVCAR-8
K562 = test system: K562
BT-549 = test system: BT-549
M14 = test system: M14
COLO 205 = test system: COLO 205
MDA-MB-435 = test system: MDA-MB-435
HOP-62 = test system: HOP-62
RPMI-8226 = test system: RPMI-8226
HCC 2998 = test system: HCC 2998
SK-OV-3 = test system: SK-OV-3
NCI-H522 = test system: NCI-H522
HT-29 = test system: HT-29
OVCAR-5 = test system: OVCAR-5
NCI-H23 = test system: NCI-H23
MDA-MB-231 = test system: MDA-MB-231
Hs-578T = test system: Hs-578T
A498 = test system: A498
SR = test system: SR
DU-145 = test system: DU-145
U-251 = test system: U-251
SK-MEL-28 = test system: SK-MEL-28
T47D = test system: T47D
RXF 393 = test system: RXF 393
SF-295 = test system: SF-295
SNB-75 = test system: SNB-75
SK-MEL-5 = test system: SK-MEL-5
CCRF-CEM = test system: CCRF-CEM
UO-31 = test system: UO-31
SK-MEL-2 = test system: SK-MEL-2
UACC-62 = test system: UACC-62
OVCAR-3 = test system: OVCAR-3
NCI-H226 = test system: NCI-H226
NCI-H460 = test system: NCI-H460
NCI/ADR-RES = test system: NCI/ADR-RES
IGROV-1 = test system: IGROV-1
MOLT-4 = test system: MOLT-4
CAKI-1 = test system: CAKI-1
SNB-19 = test system: SNB-19
HCT-116 = test system: HCT-116
HOP-92 = test system: HOP-92
LOX IMVI = test system: LOX IMVI
TK-10 = test system: TK-10
OVCAR-4 = test system: OVCAR-4
786-0 = test system: 786-0
SF-268 = test system: SF-268
ACHN = test system: ACHN
SF-539 = test system: SF-539
SW-620 = test system: SW-620
A549 = test system: A549
UACC-257 = test system: UACC-257
EKVX = test system: EKVX

With `CN(C)C(=O)/N=C1\SC(=N\c2ccccc2)/C(=N/c2ccccc2)N1c1ccc([N+](=O)[O-])cc1` the GI50 (SN12C) was > 100 µM (inactive), the GI50 (MCF7) was 84.7 µM (inactive) and the GI50 (Malme-3M) was > 100 µM (inactive). For the same compound, the GI50 (PC-3) was > 100 µM (inactive), the GI50 (HCT-15) was over 100 µM and the GI50 (KM12) was > 100 µM (inactive). For the same compound, the GI50 (MDA-N) was > 100 µM (inactive), the GI50 (HL-60) was > 100 µM (inactive) and the GI50 (OVCAR-8) was > 100 µM (inactive). For the same compound, the GI50 (K562) was > 100 µM (inactive), the GI50 (BT-549) was > 100 µM (inactive) and the GI50 (M14) was > 100 µM (inactive). For the same compound, the GI50 (COLO 205) was > 100 µM (inactive), the GI50 (MDA-MB-435) was > 100 µM (inactive) and the GI50 (HOP-62) was 61.9 µM (inactive). The GI50 (RPMI-8226) was > 100 µM (inactive), the GI50 (HCC 2998) was > 100 µM (inactive) and the GI50 (SK-OV-3) was > 100 µM (inactive). For the same compound, the GI50 (NCI-H522) was > 100 µM (inactive), the GI50 (HT-29) was 52.4 µM (inactive) and the GI50 (OVCAR-5) was > 100 µM (inactive). For the same compound, the GI50 (NCI-H23) was > 100 µM (inactive), the GI50 (MDA-MB-231) was > 100 µM (inactive) and the GI50 (Hs-578T) was 51.6 µM (inactive). For the same compound, the GI50 (A498) was > 100 µM (inactive), the GI50 (SR) was > 100 µM (inactive) and the GI50 (DU-145) was > 100 µM (inactive). For the same compound, the GI50 (U-251) was > 100 µM (inactive), the GI50 (SK-MEL-28) was > 100 µM (inactive) and the GI50 (T47D) was > 100 µM (inactive). The GI50 (RXF 393) was > 100 µM (inactive), the GI50 (SF-295) was > 100 µM (inactive) and the GI50 (SNB-75) was 41.6 µM (inactive). The GI50 (SK-MEL-5) was 49.8 µM (inactive), the GI50 (CCRF-CEM) was > 100 µM (inactive) and the GI50 (UO-31) was > 100 µM (inactive). The GI50 (SK-MEL-2) was > 100 µM (inactive), the GI50 (UACC-62) was 77.4 µM (inactive) and the GI50 (OVCAR-3) was 71 µM (inactive). The GI50 (NCI-H226) was > 100 µM (inactive), the GI50 (NCI-H460) was > 100 µM (inactive) and the GI50 (NCI/ADR-RES) was > 100 µM (inactive). The GI50 (IGROV-1) was > 100 µM (inactive), the GI50 (MOLT-4) was > 100 µM (inactive) and the GI50 (CAKI-1) was > 100 µM (inactive). For the same compound, the GI50 (SNB-19) was > 100 µM (inactive) and the GI50 (HCT-116) was > 100 µM (inactive).
`C=C1c2nc3ccccc3n2C=C(c2ccc(Cl)cc2)N1c1ccc(OCCN2CCOCC2)cc1` was tested, and the GI50 (SN12C) was > 100 µM (inactive), the GI50 (MCF7) was 10.7 µM (inactive) and the GI50 (Malme-3M) was 52 µM (inactive). The GI50 (PC-3) was 10.5 µM (inactive), the GI50 (HCT-15) was 12.7 µM and the GI50 (KM12) was 11.4 µM (inactive). For the same compound, the GI50 (MDA-N) was 42.2 µM (inactive), the GI50 (HL-60) was 7.91 µM (inactive) and the GI50 (K562) was 9.82 µM (inactive). The GI50 (BT-549) was 39.3 µM (inactive), the GI50 (M14) was 15.7 µM (inactive) and the GI50 (HOP-92) was 50.8 µM (inactive). The GI50 (COLO 205) was 18.9 µM (inactive), the GI50 (MDA-MB-435) was 12.6 µM (inactive) and the GI50 (LOX IMVI) was 11 µM (inactive). For the same compound, the GI50 (HOP-62) was 52.6 µM (inactive), the GI50 (RPMI-8226) was 2.91 µM (inactive) and the GI50 (HCC 2998) was 37.9 µM (inactive). For the same compound, the GI50 (SK-OV-3) was > 100 µM (inactive), the GI50 (TK-10) was 35.9 µM (inactive) and the GI50 (OVCAR-4) was 12.1 µM (inactive). The GI50 (HT-29) was 12.2 µM (inactive), the GI50 (786-0) was 25.2 µM (inactive) and the GI50 (SF-268) was 34.7 µM (inactive). For the same compound, the GI50 (ACHN) was 34.9 µM (inactive), the GI50 (OVCAR-5) was > 100 µM (inactive) and the GI50 (NCI-H23) was 28.2 µM (inactive). For the same compound, the GI50 (MDA-MB-231) was 62.4 µM (inactive), the GI50 (Hs-578T) was 19.5 µM (inactive) and the GI50 (A498) was > 100 µM (inactive). For the same compound, the GI50 (SR) was 12 µM (inactive), the GI50 (DU-145) was 49.8 µM (inactive) and the GI50 (U-251) was 30.5 µM (inactive). The GI50 (SF-539) was 55.3 µM (inactive), the GI50 (SW-620) was 22 µM (inactive) and the GI50 (SK-MEL-28) was 28.9 µM (inactive). For the same compound, the GI50 (T47D) was 21.4 µM (inactive), the GI50 (RXF 393) was 32.7 µM (inactive) and the GI50 (SNB-75) was > 100 µM (inactive). The GI50 (SK-MEL-5) was 13.4 µM (inactive), the GI50 (UO-31) was 33.4 µM (inactive) and the GI50 (SK-MEL-2) was 6.73 µM (inactive). The GI50 (UACC-62) was 19.9 µM (inactive), the GI50 (OVCAR-3) was 37.2 µM (inactive) and the GI50 (NCI-H226) was > 100 µM (inactive). For the same compound, the GI50 (NCI-H460) was 5.47 µM (inactive), the GI50 (NCI/ADR-RES) was 12.3 µM (inactive) and the GI50 (IGROV-1) was 14.5 µM (inactive). For the same compound, the GI50 (A549) was 27.4 µM (inactive), the GI50 (SNB-19) was > 100 µM (inactive) and the GI50 (UACC-257) was 22.7 µM (inactive). The GI50 (HCT-116) was 26.2 µM (inactive).
In the case of `NNC(=O)CCSc1ccccc1`, the GI50 (SN12C) is reported as > 100 µM (inactive), the GI50 (MCF7) is reported as > 100 µM (inactive) and the GI50 (Malme-3M) is reported as > 100 µM (inactive). The GI50 (PC-3) was > 100 µM (inactive), the GI50 (HCT-15) was over 100 µM and the GI50 (KM12) was > 100 µM (inactive). The GI50 (MDA-N) was > 100 µM (inactive), the GI50 (HL-60) was > 100 µM (inactive) and the GI50 (OVCAR-8) was > 100 µM (inactive). For the same compound, the GI50 (K562) was > 100 µM (inactive), the GI50 (BT-549) was > 100 µM (inactive) and the GI50 (M14) was > 100 µM (inactive). The GI50 (COLO 205) was > 100 µM (inactive), the GI50 (MDA-MB-435) was > 100 µM (inactive) and the GI50 (LOX IMVI) was > 100 µM (inactive). The GI50 (HOP-62) was > 100 µM (inactive), the GI50 (RPMI-8226) was > 100 µM (inactive) and the GI50 (HCC 2998) was > 100 µM (inactive). For the same compound, the GI50 (SK-OV-3) was > 100 µM (inactive), the GI50 (NCI-H522) was > 100 µM (inactive) and the GI50 (TK-10) was > 100 µM (inactive). The GI50 (OVCAR-4) was > 100 µM (inactive), the GI50 (HT-29) was > 100 µM (inactive) and the GI50 (786-0) was > 100 µM (inactive). For the same compound, the GI50 (SF-268) was > 100 µM (inactive), the GI50 (ACHN) was > 100 µM (inactive) and the GI50 (OVCAR-5) was > 100 µM (inactive). For the same compound, the GI50 (NCI-H23) was > 100 µM (inactive), the GI50 (MDA-MB-231) was > 100 µM (inactive) and the GI50 (Hs-578T) was > 100 µM (inactive). For the same compound, the GI50 (A498) was > 100 µM (inactive), the GI50 (SR) was > 100 µM (inactive) and the GI50 (DU-145) was > 100 µM (inactive). The GI50 (U-251) was > 100 µM (inactive), the GI50 (SF-539) was > 100 µM (inactive) and the GI50 (SW-620) was > 100 µM (inactive). The GI50 (SK-MEL-28) was > 100 µM (inactive), the GI50 (EKVX) was > 100 µM (inactive) and the GI50 (T47D) was > 100 µM (inactive). The GI50 (RXF 393) was > 100 µM (inactive), the GI50 (SF-295) was > 100 µM (inactive) and the GI50 (SNB-75) was > 100 µM (inactive). The GI50 (SK-MEL-5) was > 100 µM (inactive), the GI50 (CCRF-CEM) was > 100 µM (inactive) and the GI50 (UO-31) was > 100 µM (inactive). For the same compound, the GI50 (SK-MEL-2) was > 100 µM (inactive), the GI50 (UACC-62) was > 100 µM (inactive) and the GI50 (OVCAR-3) was > 100 µM (inactive). For the same compound, the GI50 (NCI-H226) was > 100 µM (inactive), the GI50 (NCI-H460) was > 100 µM (inactive) and the GI50 (NCI/ADR-RES) was > 100 µM (inactive). The GI50 (IGROV-1) was > 100 µM (inactive), the GI50 (MOLT-4) was > 100 µM (inactive) and the GI50 (A549) was > 100 µM (inactive). For the same compound, the GI50 (CAKI-1) was > 100 µM (inactive), the GI50 (SNB-19) was > 100 µM (inactive) and the GI50 (UACC-257) was > 100 µM (inactive). For the same compound, the GI50 (HCT-116) was > 100 µM (inactive).
